Experimental data taken from patent US20140128411A1, “FUNGICIDAL COMPOSITION AND METHOD FOR CONTROLLING PLANT DISEASES” (Ishihara Sangyo Kaisha, Ltd., priority 2011, published 2014).
“And” between values parts separate entries of the source, which are not always exact repeats. Equal values may be shown once.

Assays:
Erysiphe graminis = assay: Test on preventive effect against wheat powdery mildew; type: in vivo, Erysiphe graminis on wheat (cultivar: Norin-61); parameters: key: control value = (1 − a/b)×100; a, b = sporulation area treated/untreated; settings: single compound alone
Experimental: Wheat (cultivar: Norin-61) was cultivated in a plastic pot having a diameter of 7.5 cm, and when it reached 1.5-leaf stage, a chemical solution having each test compound adjusted to a prescribed concentration, was applied by a spray gun in an amount of 5 ml/seedling. After the chemical solution dried, conidia of Erysiphe graminis were dusted and inoculated and maintained in a constant temperature chamber at 20° C. From 6 to 8 days after the inoculation, the area of sporulation was investigated, and the control value was determined in accordance with the following formula, and the results are shown in Tables 1 to 7. The area of sporulation in the non-treated plot was determined in the same manner as for the treated plot except that water was applied by a spray gun instead of the chemical solution.
(§1) Control value=(1−a/b)×100
a: area of sporulation in the treated plot
b: area of sporulation in the non-treated plot
Based on the obtained control value, an expected value (control value) was calculated by the Colby's formula. The expected values by the Colby's formula are also shown in brackets ( ) in Tables 1 to 7.
When the experimental value is higher than the expected value, the fungicidal composition of the present invention has a synergistic effect against wheat powdery mildew.

Botrytis cinerea = assay: Test on preventive effect against kidney bean gray mold; type: in vivo, Botrytis cinerea on kidney bean (cultivar: Taishokintoki); settings: single compound alone
Experimental: Kidney bean (cultivar: Taishokintoki) was cultivated in a plastic pot having a diameter of 12 cm, and when it reached 3 to 4-leaf stage, a chemical solution having each test compound adjusted to a prescribed concentration, was applied by a spray gun in an amount of 10 ml/seedling. After the chemical solution dried, a suspension of conidia of Botrytis cinerea was blotted on a paper disk having a diameter of 8 mm for implantation inoculation and maintained in a constant temperature chamber at 20° C. Upon expiration of 3 days from the inoculation, the lesion area was investigated, and the control value was determined in accordance with the following formula, and the results are shown in Table 8. The lesion area in the non-treated plot was determined in the same manner as for the treated plot except that water was applied by a spray gun instead of the chemical solution.
as §1
a: lesion area in the treated plot
b: lesion area in the non-treated plot
Based on the obtained control value, an expected value (control value) was calculated by the Colby's formula. The expected values by the Colby's formula are also shown in brackets ( ) in Table 8.
When the experimental value is higher than the expected value, the fungicidal composition of the present invention has a synergistic effect against kidney bean gray mold.

`CCCCCCCCc1c(CC)nc2ncnn2c1N` [ametoctradin] gave a Control value (Erysiphe graminis; 200 ppm) of 0 and a Control value (Erysiphe graminis; 400 ppm) of 15.
`Cn1cc(C(=O)Nc2ccc(F)cc2-c2ccc(Cl)c(Cl)c2)c(C(F)F)n1` [bixafen] gave a Control value (Erysiphe graminis; 250 ppm) of 0 and a Control value (Erysiphe graminis; 500 ppm) of 50.
`COc1cc(C)c(C(=O)c2c(OC)ncc(Cl)c2C)c(OC)c1OC` [component (a), 3-(2,3,4-trimethoxy-6-methylbenzoyl)-5-chloro-2-methoxy-4-methylpyridine] was tested, and the Control value (Botrytis cinerea; 200 ppm) was 0, the Control value (Botrytis cinerea; 400 ppm, spray, lesion area 3 days after inoculation) was 0 and the Control value (Erysiphe graminis; 0.25 ppm) was 30. The Control value (Erysiphe graminis; 0.5 ppm, spray, area of sporulation 6 to 8 days after inoculation) was 50 and 40.
Molecule `C=CCSC(=O)n1c(N)c(-c2ccccc2C)c(=O)n1C(C)C` [fenpyrazamine] has a Control value (Erysiphe graminis; 63 ppm) of 0 and a Control value (Erysiphe graminis; 250 ppm) of 0.
Work on `O=C(NCCc1ncc(C(F)(F)F)cc1Cl)c1ccccc1C(F)(F)F` [fluopyram] yielded a Control value (Erysiphe graminis; 16 ppm) of 40 and a Control value (Erysiphe graminis; 31 ppm) of 70.
For `Cn1cc(C(=O)Nc2ccccc2-c2cc(F)c(F)c(F)c2)c(C(F)F)n1` [fluxapyroxad], the Control value (Erysiphe graminis; 6.3 ppm) was 30 and the Control value (Erysiphe graminis; 50 ppm) was 50.
`CC(C)C1C2CCC1c1c(NC(=O)c3cn(C)nc3C(F)F)cccc12` (centres unmarked) [isopyrazam] was tested, and the Control value (Erysiphe graminis; 16 ppm) was 50 and the Control value (Erysiphe graminis; 31 ppm) was 90.
In the case of `Cc1nn(C)c(F)c1C(=O)Nc1ccccc1C(C)CC(C)C` (centres unmarked) [penflufen], the Control value (Botrytis cinerea; 50 ppm) is reported as 40 and the Control value (Botrytis cinerea; 100 ppm) is reported as 50.
Molecule `Cn1cc(C(=O)Nc2ccccc2C2CC2C2CC2)c(C(F)F)n1` (centres unmarked) [sedaxane] has a Control value (Erysiphe graminis; 6.3 ppm) of 0 and a Control value (Erysiphe graminis; 12.5 ppm) of 30.
